The values that follow come from ChEMBL document CHEMBL2203140, “Syntheses and structure-activity relationship studies of N-substituted-β-D-glucosaminides as selective cytotoxic agents” (Bioorg Med Chem Lett, 2012).

Holding throughout (assay type): functional, cell-based
The test system of one assay is MCF7. Briefly: Cytotoxicity against human MCF7 cells after 48 hrs by MTT assay. Conditions: MCF7, 48 h. (In general: Formazan colour is commonly taken as a measure of viable cells.)
In another assay the test system is HeLa. Briefly: Cytotoxicity against human HeLa cells after 48 hrs by MTT assay.
The next assay concerns A549. In words: Cytotoxicity against human A549 cells after 48 hrs by MTT assay. Particulars: A549, 48 h.
The subject of another assay is HCT-116. Briefly: Cytotoxicity against human HCT116 cells after 48 hrs by MTT assay. Particulars: HCT-116, 48 h.
The subject of a further assay is HepG2. Briefly: Cytotoxicity against human HepG2 cells after 48 hrs by MTT assay. Conditions: HepG2, 48 h.
Another assay deals with HT-1080. In words: Cytotoxicity against human HT1080 cells after 48 hrs by MTT assay. Conditions: HT-1080, 48 h.

pIC50: −log10 of the molar value.

With `C[C@@H]1CC[C@@]2(OC1)O[C@H]1C[C@H]3[C@@H]4CC=C5C[C@@H](O[C@@H]6O[C@H](CO)[C@@H](O)[C@H](O)[C@H]6NC(=O)/C=C/c6cccc(Br)c6)CC[C@]5(C)[C@H]4CC[C@]3(C)[C@H]1[C@@H]2C`, the pIC50 in the assay with MCF7, in the assay with HeLa, with A549, with HCT-116, in the assay on HepG2 and in the assay with HT-1080 was less than 4.30 each time.

Consider `C[C@@H]1CC[C@@]2(OC1)O[C@H]1C[C@H]3[C@@H]4CC=C5C[C@@H](O[C@@H]6O[C@H](CO)[C@@H](O)[C@H](O)[C@H]6NC(=O)NCc6ccc(F)cc6)CC[C@]5(C)[C@H]4CC[C@]3(C)[C@H]1[C@@H]2C`, for which the pIC50 – broadly, −log10 of the IC50, conventionally taken in molar units – in the assay on MCF7 is less than 4.30; in the assay with HeLa it was less than 4.30; with A549 it was less than 4.30; in the assay on HCT-116, less than 4.30; in the assay on HepG2, less than 4.30; in the assay on HT-1080, 4.38.

As for `C[C@@H]1CC[C@@]2(OC1)O[C@H]1C[C@H]3[C@@H]4CC=C5C[C@@H](O[C@@H]6O[C@H](CO)[C@@H](O)[C@H](O)[C@H]6NC(=S)N/N=C/c6ccccc6)CC[C@]5(C)[C@H]4CC[C@]3(C)[C@H]1[C@@H]2C`, the pIC50 with MCF7 was 4.32; in the assay with HeLa it was 4.44; in the assay on A549 it was 4.30; in the assay with HCT-116, 4.40; in the assay with HepG2 it was 4.53; in the assay with HT-1080, less than 4.30.

As for `COc1cccc(/C=C/C(=O)N[C@H]2[C@H](O[C@H]3CC[C@@]4(C)C(=CC[C@H]5[C@@H]6C[C@@H]7O[C@]8(CC[C@@H](C)CO8)[C@@H](C)[C@@H]7[C@@]6(C)CC[C@@H]54)C3)O[C@H](CO)[C@@H](O)[C@@H]2O)c1`, the negative-log IC50 (pIC50) is 4.62 in the assay with MCF7; 4.57 in the assay with HeLa; 4.57 in the assay with A549; less than 4.30 in the assay on HCT-116; less than 4.30 in the assay with HepG2; 4.58 in the assay with HT-1080.

As for `C[C@@H]1CC[C@@]2(OC1)O[C@H]1C[C@H]3[C@@H]4CC=C5C[C@@H](O[C@@H]6O[C@H](CO)[C@@H](O)[C@H](O)[C@H]6NC(=O)NC6CC6)CC[C@]5(C)[C@H]4CC[C@]3(C)[C@H]1[C@@H]2C`, the pIC50 is less than 4.30 in the assay with MCF7; 4.36 in the assay on HeLa; less than 4.30 in the assay with A549; less than 4.30 in the assay with HCT-116; less than 4.30 in the assay with HepG2; less than 4.30 in the assay with HT-1080.

In the case of `COc1ccc(/C=N/NC(=S)N[C@H]2[C@H](O[C@H]3CC[C@@]4(C)C(=CC[C@H]5[C@@H]6C[C@@H]7O[C@]8(CC[C@@H](C)CO8)[C@@H](C)[C@@H]7[C@@]6(C)CC[C@@H]54)C3)O[C@H](CO)[C@@H](O)[C@@H]2O)cc1`, the pIC50 is less than 4.30 in the assay on MCF7; 4.46 with HeLa; 4.43 in the assay with A549; 4.42 in the assay on HCT-116; 4.55 in the assay with HepG2; less than 4.30 with HT-1080.

Consider `C[C@@H]1CC[C@@]2(OC1)O[C@H]1C[C@H]3[C@@H]4CC=C5C[C@@H](O[C@@H]6O[C@H](CO)[C@@H](O)[C@H](O)[C@H]6NC(=O)/C=C/c6ccccc6[N+](=O)[O-])CC[C@]5(C)[C@H]4CC[C@]3(C)[C@H]1[C@@H]2C`, for which the pIC50 with MCF7 is less than 4.30; with HeLa, less than 4.30; in the assay with A549, less than 4.30; with HCT-116, less than 4.30; in the assay on HepG2 it was less than 4.30; in the assay with HT-1080 it was 4.44.

Turning to `COc1cc(/C=C/C(=O)N[C@H]2[C@H](O[C@H]3CC[C@@]4(C)C(=CC[C@H]5[C@@H]6C[C@@H]7O[C@]8(CC[C@@H](C)CO8)[C@@H](C)[C@@H]7[C@@]6(C)CC[C@@H]54)C3)O[C@H](CO)[C@@H](O)[C@@H]2O)cc(OC)c1OC`, the pIC50 with MCF7, in the assay on HeLa, with A549, in the assay with HCT-116, in the assay with HepG2 and in the assay with HT-1080 was less than 4.30 each time.

For the compound `COc1ccccc1/C=C/C(=O)N[C@H]1[C@H](O[C@H]2CC[C@@]3(C)C(=CC[C@H]4[C@@H]5C[C@@H]6O[C@]7(CC[C@@H](C)CO7)[C@@H](C)[C@@H]6[C@@]5(C)CC[C@@H]43)C2)O[C@H](CO)[C@@H](O)[C@@H]1O`, the negative-log IC50 (pIC50) in the assay on MCF7 was 4.64; in the assay with HeLa, 4.56; in the assay on A549 it was 4.64; in the assay with HCT-116, 4.41; with HepG2, 4.53; in the assay with HT-1080, 5.37.

Consider `C[C@@H]1CC[C@@]2(OC1)O[C@H]1C[C@H]3[C@@H]4CC=C5C[C@@H](O[C@@H]6O[C@H](CO)[C@@H](O)[C@H](O)[C@H]6NC(=O)/C=C/c6ccccc6)CC[C@]5(C)[C@H]4CC[C@]3(C)[C@H]1[C@@H]2C`, for which the negative-log IC50 (pIC50) is 4.80 in the assay with MCF7; 4.89 in the assay with HeLa; 4.38 in the assay on A549; 4.41 in the assay on HCT-116; 4.44 with HepG2; 4.53 with HT-1080.

With `COc1ccc(/C=C/C(=O)N[C@H]2[C@H](O[C@H]3CC[C@@]4(C)C(=CC[C@H]5[C@@H]6C[C@@H]7O[C@]8(CC[C@@H](C)CO8)[C@@H](C)[C@@H]7[C@@]6(C)CC[C@@H]54)C3)O[C@H](CO)[C@@H](O)[C@@H]2O)c(OC)c1`, the negative-log IC50 (pIC50) was 4.57 in the assay on MCF7; 4.65 with HeLa; 4.57 in the assay with A549; 4.37 with HCT-116; 4.38 in the assay on HepG2; 5.24 in the assay on HT-1080.

Regarding `CCCCCCCNC(=O)N[C@H]1[C@H](O[C@H]2CC[C@@]3(C)C(=CC[C@H]4[C@@H]5C[C@@H]6O[C@]7(CC[C@@H](C)CO7)[C@@H](C)[C@@H]6[C@@]5(C)CC[C@@H]43)C2)O[C@H](CO)[C@@H](O)[C@@H]1O`, the pIC50 with MCF7 is less than 4.30; in the assay with HeLa, less than 4.30; with A549 it was less than 4.30; in the assay on HCT-116, less than 4.30; in the assay with HepG2, less than 4.30; with HT-1080, 4.37.

For the compound `C[C@@H]1CC[C@@]2(OC1)O[C@H]1C[C@H]3[C@@H]4CC=C5C[C@@H](O[C@@H]6O[C@H](CO)[C@@H](O)[C@H](O)[C@H]6NC(=O)/C=C/c6cccc(Cl)c6)CC[C@]5(C)[C@H]4CC[C@]3(C)[C@H]1[C@@H]2C`, the negative-log IC50 (pIC50) in the assay with MCF7, in the assay with HeLa, with A549, with HCT-116, in the assay with HepG2 and in the assay on HT-1080 was less than 4.30 in each case.

Take `C[C@@H]1CC[C@@]2(OC1)O[C@H]1C[C@H]3[C@@H]4CC=C5C[C@@H](O[C@@H]6O[C@H](CO)[C@@H](O)[C@H](O)[C@H]6NC(=O)NCc6ccccc6)CC[C@]5(C)[C@H]4CC[C@]3(C)[C@H]1[C@@H]2C`: the pIC50 in the assay with MCF7 was 4.62; in the assay on HeLa it was 4.57; in the assay on A549, 4.55; in the assay with HCT-116 it was less than 4.30; in the assay on HepG2, less than 4.30; with HT-1080, less than 4.30.

As to `C[C@@H]1CC[C@@]2(OC1)O[C@H]1C[C@H]3[C@@H]4CC=C5C[C@@H](O[C@@H]6O[C@H](CO)[C@@H](O)[C@H](O)[C@H]6NC(=O)/C=C/c6ccc(F)cc6)CC[C@]5(C)[C@H]4CC[C@]3(C)[C@H]1[C@@H]2C`, the pIC50 in the assay with MCF7 is 4.67; in the assay on HeLa, 4.57; with A549, 4.47; in the assay with HCT-116 it was 4.46; in the assay with HepG2 it was 4.40; with HT-1080, 4.46.

For the compound `CC(=O)N[C@H]1[C@H](O[C@H]2CC[C@@]3(C)C(=CC[C@H]4[C@@H]5C[C@@H]6O[C@]7(CC[C@@H](C)CO7)[C@@H](C)[C@@H]6[C@@]5(C)CC[C@@H]43)C2)O[C@H](CO)[C@@H](O)[C@@H]1O`, the negative-log IC50 (pIC50) in the assay on A549, in the assay on HCT-116, in the assay with HepG2 and in the assay with HT-1080 was less than 4.30 in each case.

In the case of `COc1ccc(CNC(=O)N[C@H]2[C@H](O[C@H]3CC[C@@]4(C)C(=CC[C@H]5[C@@H]6C[C@@H]7O[C@]8(CC[C@@H](C)CO8)[C@@H](C)[C@@H]7[C@@]6(C)CC[C@@H]54)C3)O[C@H](CO)[C@@H](O)[C@@H]2O)cc1`, the negative-log IC50 (pIC50) with MCF7, in the assay on HeLa, in the assay on A549, with HCT-116, in the assay on HepG2 and in the assay on HT-1080 was less than 4.30 each time.

For `O=c1[nH]cc(F)c(=O)[nH]1` [FLUOROURACIL], the pIC50 in the assay on MCF7 is 4.10; in the assay with HeLa, 4.20; in the assay with HCT-116, 4.44; with HepG2, 4.29; in the assay with HT-1080 it was 4.82.

Consider `COc1ccc(/C=C/C(=O)N[C@H]2[C@H](O[C@H]3CC[C@@]4(C)C(=CC[C@H]5[C@@H]6C[C@@H]7O[C@]8(CC[C@@H](C)CO8)[C@@H](C)[C@@H]7[C@@]6(C)CC[C@@H]54)C3)O[C@H](CO)[C@@H](O)[C@@H]2O)cc1OC`, for which the pIC50 in the assay with MCF7 was 4.50; with HeLa, 4.58; with A549, 4.52; with HCT-116 it was 4.54; in the assay on HepG2, 4.59; with HT-1080 it was less than 4.30.

In the case of `C[C@@H]1CC[C@@]2(OC1)O[C@H]1C[C@H]3[C@@H]4CC=C5C[C@@H](O[C@@H]6O[C@H](CO)[C@@H](O)[C@H](O)[C@H]6NC(=S)N/N=C/c6cc(C(F)(F)F)cc(C(F)(F)F)c6)CC[C@]5(C)[C@H]4CC[C@]3(C)[C@H]1[C@@H]2C`, the pIC50 in the assay with MCF7, with HeLa, in the assay with A549, in the assay on HCT-116, in the assay on HepG2 and with HT-1080 was less than 4.30 each time.
